One series has as its target T1, δ-ALA-D (Mus musculus, UniProt P10518).
T1 sequence (P10518 1-330): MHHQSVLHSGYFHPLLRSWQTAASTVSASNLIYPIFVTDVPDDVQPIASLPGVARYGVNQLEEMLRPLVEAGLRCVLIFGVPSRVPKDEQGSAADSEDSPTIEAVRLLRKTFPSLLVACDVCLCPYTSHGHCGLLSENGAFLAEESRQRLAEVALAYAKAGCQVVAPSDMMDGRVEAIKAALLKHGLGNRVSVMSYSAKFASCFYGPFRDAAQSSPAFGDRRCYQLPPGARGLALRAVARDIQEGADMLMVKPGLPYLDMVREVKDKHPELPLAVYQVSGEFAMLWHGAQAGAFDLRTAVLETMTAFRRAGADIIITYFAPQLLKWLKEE
Briefly: δ-ALA-D activity in tissue supernatants (in vitro toxicity). The following applies: mean ± SD (n = 3).

The nature of another series: ABTS radical scavenging. The following applies: mean ± SD (n = 3). How it is done: The antioxidant properties of the synthesized compounds (5a–d and 10) were evaluated by three different methods in vitro: DPPH (1,1-diphenyl-2-picryl-hydrazyl) and ABTS^+ (2,2′-azino-bis(3-ethylbenzthiazoline-6-sulfonic acid) radical scavenging ability and ferric ion reducing antioxidant power (FRAP). All drugs were dissolved in dimethyl sulfoxide (DMSO) at concentrations of 1–500 µM. These assays were performed according to the literature and details of these experiments are described elsewhere (see the ‘Results and Discussion’ section for the references). […]
2.3. Antioxidant activity assays
The antioxidant properties of the synthesized compounds were evaluated by three different methods in vitro: DPPH and ABTS+ radical scavenging activity and ferric ion reducing antioxidant power (FRAP). All drugs were dissolved in dimethyl sulfoxide (DMSO). The experimental results were given as the means ± standard deviation (SD) to show the variations among the groups. The statistical analysis was performed using one‐way analysis of variance (ANOVA) followed by Newman‐Keuls multiple comparison test when appropriate. The differences were considered statistically significant at a probability of less than 5% (p < 0.05). All tests were performed at least three times in duplicate. The IC50 values (the concentration of sample required to scavenge 50% of the free radicals) were calculated from the graph of the scavenging effect percentage versus the […]
2.4. Radical Scavenging Activity
To determine if compounds 5a–d and 10 present in vitro antioxidant activity against free radicals, DPPH and ABTS+ scavenging capability were evaluated at different concentrations. […]
The ABTS radical scavenging activity was determined according to the method described by Erel. Different concentrations of compounds 5a–d and 10 (10–500 μ M) were mixed with the ABTS+ solution, and the decrease in the absorbance at 734 nm was recorded. […]
values, as calculated by the following equation:
I% = [(Ac−As/Ac) × 100] (1)
3. Ferric ion reducing antioxidant power (FRAP) […]
reducing capacity of compounds 5a–d and 10.
[8] with slight modifications.
They were homogenized in a 0.1 M
The supernatants were used for determination of the δ‐ALAD activity. […]
and 500 μL of distilled water. […]
and the absorbance was read at 555 nm.

Series [1] concerns Pseudomonas aeruginosa ATCC 15442. Briefly: agar disk diffusion test. It is filed as cell-based. The following applies: P. aeruginosa, 1.0 × 10^8 CFU.mL^−1; 20 μL compound diluted in DMSO (1:1) per 6 mm disc; streptomycin 10 µg; mean of two repetitions.
In series [2] the test system is Staphylococcus aureus ATCC 25923. Briefly: agar disk diffusion test. It is filed as cell-based. The following applies: S. aureus, 1.0 × 10^8 CFU.mL^−1; 20 μL compound diluted in DMSO (1:1) per 6 mm disc; streptomycin 10 µg; mean of two repetitions.
The subject of series [3] is Listeria monocytogenes ATCC 7644. Briefly: agar disk diffusion test. It is filed as cell-based. The following applies: L. monocytogenes, 1.0 × 10^8 CFU.mL^−1; 20 μL compound diluted in DMSO (1:1) per 6 mm disc; streptomycin 10 µg; mean of two repetitions. For orientation: A growth-free zone around the sample is the usual read-out of agar diffusion tests.
Series [4] concerns Escherichia coli O157: H7 NCTC 12900. Briefly: agar disk diffusion test. It is filed as cell-based. The following applies: E. coli O157:H7, 1.0 × 10^8 CFU.mL^−1; 20 μL compound diluted in DMSO (1:1) per 6 mm disc; streptomycin 10 µg; mean of two repetitions.
Series [5] relates to Salmonella Typhimurium ATCC 14028. Briefly: agar disk diffusion test. It is filed as cell-based. The following applies: S. Typhimurium, 1.0 × 10^8 CFU.mL^−1; 20 μL compound diluted in DMSO (1:1) per 6 mm disc; streptomycin 10 µg; mean of two repetitions.

The structures appear in SMILES notation.

For `CC(C)=CCC[C@@H](C)C(/C=N/O)[Se]c1ccccc1` (stereo partly drawn) [compound 10, (3R,E)-3,7-dimethyl-2-(phenylselanyl)oct-6-enal oxime], the δ-ALA-D activity at δ-ALA-D (Brain, 10 μM) is on record as 0.30 ± 0.10 nmol PBG.mg.tn‐1.h‐1; at δ-ALA-D (Brain, 50 μM) it was 0.28 ± 0.09 nmol PBG.mg.tn‐1.h‐1; at δ-ALA-D (Brain, 100 μM) it was 0.26 ± 0.08 nmol PBG.mg.tn‐1.h‐1; at δ-ALA-D (Brain, 500 μM), 0.26 ± 0.07 nmol PBG.mg.tn‐1.h‐1; on δ-ALA-D (Kidney, 10 μM), 0.96 ± 0.12 nmol PBG.mg.tn‐1.h‐1; on δ-ALA-D (Kidney, 50 μM) it was 0.95 ± 0.10 nmol PBG.mg.tn‐1.h‐1. Further, the δ-ALA-D activity on δ-ALA-D (Kidney, 100 μM) is recorded as 0.84 ± 0.10 nmol PBG.mg.tn‐1.h‐1; on δ-ALA-D (Kidney, 500 μM), 0.61 ± 0.12 nmol PBG.mg.tn‐1.h‐1; on δ-ALA-D (Liver, 10 μM), 4.90 ± 0.58 nmol PBG.mg.tn‐1.h‐1; on δ-ALA-D (Liver, 50 μM) it was 4.71 ± 0.53 nmol PBG.mg.tn‐1.h‐1; on δ-ALA-D (Liver, 100 μM), 4.57 ± 0.62 nmol PBG.mg.tn‐1.h‐1; on δ-ALA-D (Liver, 500 μM), 3.97 ± 0.82 nmol PBG.mg.tn‐1.h‐1. Also, the “ABTS radical scavenging, percentage of inhibition in relation to control” value in the series “ABTS radical scavenging” (5 μM) was 2.39 ± 0.57%; in “ABTS radical scavenging” (10 μM), 27.81 ± 2.12 %; in “ABTS radical scavenging” (50 μM), 87.59 ± 4.81 %; in “ABTS radical scavenging” (100 μM), 94.03 ± 1.05 %. Further, in the series “ABTS radical scavenging” (read-out: ABTS radical scavenging IC50 (concentration compound required for 50% scavenging)), the IC50 stood at 25 ± 2 µM. The “Inhibition Zone” value in series [1] stood at 9 mm; in series [2], 22 mm; in series [3], 21 mm; in series [4] it was 9 mm; in series [5] it was 10.5 mm.

Values taken from PMC5590075, “Synthesis, Antimicrobial, and Antioxidant Activities of Chalcogen-Containing Nitrone Derivatives from (R)-citronellal” (Medicines, 2017).
